Laboratory results: patent US20130202530A1, “NOVEL RADIOTRACER” (IMPERIAL COLLEGE, priority 2010, published 2013)

Key:
CHKA = CHKA expression in exponentially growing cells treated with PD0325901; type: cell-based
[1] = system: human colon carcinoma xenograft HCT116; assay: Imaging response to PD0325901 treatment by [18F]D4-FCH-PET; type: in vivo, mice
Method: Size-matched HCT116 tumor bearing mice were randomized to receive daily treatment by oral gavage of vehicle (0.5% hydroxypropyl methylcellulose+0.2% Tween 80) or 25 mg/kg (0.005 mL/g mouse) of the mitogenic extracellular kinase inhibitor, PD0325901, prepared in vehicle. [^18F]D4-FCH-PET scanning was done after 10 daily treatments with the last dose administered 1 h before scanning. […] The results are illustrated in FIGS. 18 and 19.
These studies were performed in a reproducible tumor model system in which treatment outcomes had been previously characterized, i.e., the human colon carcinoma xenograft HCT116 treated with PD0325901 daily for 10 days (Leyton, J., et al., “Noninvasive imaging of cell proliferation following mitogenic extracellular kinase inhibition by PD0325901”, Mol Cancer Ther 2008; 7(9):3112-21). […] All imaging variables decreased after 10 days of drug treatment (P=0.05, FIG. 18). […] To understand the biomarker changes, the intrinsic cellular effect of PD0325901 on D4-FCH-phosphocholine formation was examined by treating exponentially growing HCT116 cells in culture with PD0325901 for 24 h and measuring the 60-min uptake of [^18F]D4-FCH in vitro.

[2] = system: HCT116 human colon xenografts; settings: mouse, in vivo
Method: Time course biodistribution was carried out for [^18F]fluoromethylcholine, [^18F]fluoromethyl-[1-^2H2]choline and [^18F]fluoromethyl-[1,2-^2H4]choline in nude mice bearing HCT116 human colon xenografts.
Human colon (HCT116) tumors were grown in male C3H-Hej mice (Harlan, Bicester, United Kingdom) as previously reported (Leyton, J., et al., Cancer Research 2005; 65(10):4202-10). Tumor dimensions were measured continuously using a caliper and tumor volumes were calculated by the equation: volume=(π/6)×a×b×c, where a, b, and c represent three orthogonal axes of the tumor. Mice were used when their tumors reached approximately 100 mm^3. […] The mice were sacrificed at pre-determined time points (2, 30 and 60 min) after radiotracer injection under terminal anesthesia to obtain blood, plasma, tumor, heart, lung, liver, kidney and muscle. Tissue radioactivity was determined on a gamma counter (Cobra II Auto-Gamma counter, Packard Biosciences Co, Pangbourne, UK) and decay corrected. Data were expressed as percent injected dose per gram of tissue.

[3] = mouse, in vivo
Method: [^18F]FCH or [^18F](D4-FCH) (80-100 μCi) was injected via the tail vein into anesthetized non-tumor bearing C3H-Hej mice; isofluorane/O2/N2O anesthesia was used. Plasma samples obtained at 2, 15, 30 and 60 minutes after injection were snap frozen in liquid nitrogen and stored at −80° C. For analysis, samples were thawed and kept at 4° C. To approximately 0.2 mL of plasma was added ice-cold acetonitrile (1.5 mL). The mixture was then centrifuged (3 minutes, 15,493×g; 4° C.). The supernatant was evaporated to dryness using a rotary evaporator (Heidoloph Instruments GMBH & C0, Schwabach, Germany) at a bath temperature of 45° C. The residue was suspended in mobile phase (1.1 mL), clarified (0.2 μm filter) and analyzed by HPLC. […] All samples were analyzed on an Agilent 1100 series HPLC system equipped with a γ-RAM Model 3 radio-detector (IN/US Systems inc., FL, USA). The analysis was based on the method of Roivannen (Roivainen, A., et al., European Journal of Nuclear Medicine 2000; 27:25-32) using a Phenomenex Luna SCX column (10μ, 250×4.6 mm) and a mobile phase comprising of 0.25 M sodium dihydrogen phosphate (pH 4.8) and acetonitrile (90:10 v/v) delivered at a flow rate of 2 ml/min.

[4] = 20 min
Text: The effect of deuterium substitution on bond strength was initially tested by evaluation of the chemical oxidation pattern of [^18F]fluoromethylcholine and [^18F]Fluoromethyl-[1,2-^2H4]choline using potassium permanganate.

choline oxidase = molecular target: T1, choline oxidase (Arthrobacter globiformis, UniProt Q7X2H8); assay: Enzymatic oxidation study using choline oxidase; settings: 60 minute time point, room temperature
T1 sequence (Q7X2H8 1-546): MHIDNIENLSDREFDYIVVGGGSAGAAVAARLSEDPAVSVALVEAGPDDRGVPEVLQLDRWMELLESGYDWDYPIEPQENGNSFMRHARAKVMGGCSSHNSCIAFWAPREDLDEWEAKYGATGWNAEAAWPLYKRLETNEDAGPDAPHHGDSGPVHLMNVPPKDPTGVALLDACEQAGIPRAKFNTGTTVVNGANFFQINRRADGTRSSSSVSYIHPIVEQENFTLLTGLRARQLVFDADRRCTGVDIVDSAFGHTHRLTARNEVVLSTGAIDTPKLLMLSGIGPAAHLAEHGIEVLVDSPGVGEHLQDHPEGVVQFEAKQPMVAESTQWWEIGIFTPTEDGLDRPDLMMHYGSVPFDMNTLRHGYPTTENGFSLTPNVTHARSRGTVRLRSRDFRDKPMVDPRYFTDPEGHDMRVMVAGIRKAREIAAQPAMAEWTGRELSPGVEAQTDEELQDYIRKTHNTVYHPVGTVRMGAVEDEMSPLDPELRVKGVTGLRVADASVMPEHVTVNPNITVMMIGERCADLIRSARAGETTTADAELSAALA
Method: [^18F]fluoromethylcholine and [^18F]fluoromethyl-[1,2-^2H4]choline were evaluated in a choline oxidase model (Roivainen, A., et al., European Journal of Nuclear Medicine 2000; 27:25-32).
An aliquot of either [^18F]Fluoromethylcholine or [^18F]fluoromethyl-[1,2-^2H4]choline [^18F](100 μL, ˜3.7 MBq) was added to a vial containing water (1.9 mL) to give a stock solution. Sodium phosphate buffer (0.1 M, pH 7) (10 uL) containing choline oxidase (0.05 units/uL) was added to an aliquot of stock solution (190 uL) and the vial was then left to stand at room temperature, with occasional agitation. At selected time-points (5, 20, 40 and 60 minutes) the sample was diluted with HPLC mobile phase (buffer A, 1.1 mL), filtered (0.22 μm filter) and then ˜1 mL injected via a 1 mL sample loop onto the HPLC for analysis. Chromatographic separation was performed on a Waters C18 Bondapak (7.8×300 mm) column (Waters, Milford, Mass., USA) at 3 mL/min with a mobile phase of buffer A, which contained acetonitrile, ethanol, acetic acid, 1.0 mol/L ammonium acetate, water, and 0.1 mol/L sodium phosphate (800:68:2:3:127:10 [v/v]) and buffer B, which contained the same constituents but in different proportions (400:68:44:88:400:10 [v/v]). The gradient program comprised 100% buffer A for 6 minutes, 0-100% buffer B for 10 minutes, 100-0% B in 2 minutes then 0% B for 2 minutes.

[5] = system: human melanoma SKMEL-28 xenografts; settings: mouse, in vivo
Method: Dynamic [^18F]FCH and [^18F]D4-FCH imaging scans were carried out on a dedicated small animal PET scanner, quad-HIDAC (Oxford Positron Systems). The features of this instrument have been described previously (Barthel, H., et al., Cancer Res 2003; 63(13):3791-8). For scanning the tail veins, vehicle- or drug-treated mice were cannulated after induction of anesthesia (isofluorane/O2/N2O). The animals were placed within a thermostatically controlled jig (calibrated to provide a rectal temperature of ˜37° C.) and positioned prone in the scanner. [^18F]FCH or [^18F]D4-FCH (2.96-3.7 MBq) was injected via the tail vein cannula and scanning commenced. Dynamic scans were acquired in list mode format over a 60 min period as reported previously (Leyton, J., et al., Cancer Research 2006; 66(15):7621-9). […] Dynamic data from these slices were averaged for each tissue (liver, kidney, muscle, urine, and tumor) and at each of the 19 time points to obtain time versus radioactivity curves. Corresponding whole body time versus radioactivity curves representing injected radioactivity were obtained by adding together radioactivity in all 200×160×160 reconstructed voxels. Tumor radioactivity was normalized to whole-body radioactivity and expressed as percent injected dose per voxel (% ID/vox). […] The area under the curve was calculated as the integral of % ID/vox from 0 to 60 min.

Row | Compound | CHKA expression in vitro (CHKA) | [18F]D4-FCH radiotracer retention in treated tumors ([1]; 25 mg/kg daily for 10 days, versus vehicle) | imaging variables (% ID/vox60, % ID/vox60max, AUC) ([1]; after 10 days of drug treatment, [18F]D4-FCH-PET) | tumor uptake (localization of radiotracer) [2] | percentage of parent compound in plasma [3] | proportion of the parent compound remaining [4] | parent radiotracer present (radio-HPLC distribution of choline species) (choline oxidase) | % IDvox60max (average of the maximum pixel % ID/vox60 across 5 slices) [5]
1 | O=C(NOC[C@H](O)CO)c1ccc(F)c(F)c1Nc1ccc(I)cc1F [PD0325901] | reduction | marked reduction in radiotracer retention | decreased |  |  |  |  | 
2 | [2H]C([2H])(O)C([2H])([2H])[N+](C)(C)C[18F] [[^18F]D4-FCH, [^18F]fluoromethyl-[1,2-^2H4]-choline] |  |  |  | pronounced increase in tumor uptake | consistently higher | greater proportion of the parent compound remaining | 29±4% | significantly higher
3 | C[N+](C)(C[18F])CCO [[^18F]FCH, [^18F]Fluoromethylcholine, reference compound] |  |  |  |  |  |  | 11±8% | 
